The values below come from ChEMBL document CHEMBL1629425, “Antibacterial prenylated acylphloroglucinols from the fern Elaphoglossum yungense” (2010).

≈ marks a conversion by molar mass, not a printed value. Calls of active or inactive are those of the source. The rule behind the calls is not given here. A value given as a limit tells only on which side of the number the result lay.

The test system of test [1] is Staphylococcus aureus. The experiment in a line: Antibacterial activity against Staphylococcus aureus ATCC 6738 assessed as growth inhibition at 10 ug/ml after 24 hrs by Broth micro dilution method relative to control. The conditions noted are these: ATCC 6738, 24 h, read-out: GI. It counts as functional.
Test [2] relates to Staphylococcus aureus. Put plainly: Antibacterial activity against Staphylococcus aureus ATCC 6738 after 24 hrs by Broth micro dilution method. It counts as functional. The conditions noted are these: ATCC 6738, 24 h.
Test [3] concerns Pseudomonas aeruginosa. Put plainly: Antibacterial activity against Pseudomonas aeruginosa ATCC 27853 after 24 hrs by Broth micro dilution method. It counts as functional. The conditions noted are these: ATCC 27853, 24 h.
Test [4] deals with Pseudomonas aeruginosa. The experiment in a line: Antibacterial activity against Pseudomonas aeruginosa ATCC 27853 assessed as growth inhibition at 10 ug/ml after 24 hrs by Broth micro dilution method relative to control. The format is functional. As to conditions: ATCC 27853, 24 h, read-out: GI.
Test [5] relates to Staphylococcus aureus. Put plainly: increase in biofilm formation of Staphylococcus aureus ATCC 6738 at 10 ug/ml relative to control. The format is functional, organism-based.

Broadly, the MBC is the lowest tested concentration that kills the bacteria rather than only halting them. The low end stands for more potent killing, the high end for less potent killing. In general, MIC refers to the least concentration at which growth counts as inhibited. Read a low MIC as greater potency. `CCCC(=O)c1c(O)c(CC2=C(O)C(C)(C/C=C(\C)CCC=C(C)C)C(O)=C(C(C)=O)C2=O)c(O)c2c1OC(C)(CCC=C(C)C)C=C2` (stereo not given) [YUNGENSIN C]: the inhibition of growth at 10 µg/mL is 92% in the test on Staphylococcus aureus [1] and 87% in the test with Pseudomonas aeruginosa [4]. Further, the MBC with Staphylococcus aureus [2] was 100 µg/mL (≈ 151 µM); with Pseudomonas aeruginosa [3] it was 50 µg/mL (≈ 75.7 µM). Further, the MIC against Staphylococcus aureus [2] and with Pseudomonas aeruginosa [3] was 50 µg/mL (≈ 75.7 µM) in each case.
Consider `CCCCCC(=O)c1c(O)c(CC2=C(O)C(C)(C/C=C(\C)CCC=C(C)C)C(O)=C(C(C)=O)C2=O)c(O)c2c1OC(C)(C)C=C2` (stereo not given) [YUNGENSIN B], for which the inhibition of growth at 10 µg/mL in the test on Staphylococcus aureus [1] and with Pseudomonas aeruginosa [4] was 99% in each case. The MBC in the test with Staphylococcus aureus [2] is 100 µg/mL (≈ 161 µM); in the test on Pseudomonas aeruginosa [3] it was 50 µg/mL (≈ 80.5 µM). Besides, the MIC against Staphylococcus aureus [2] and in the test with Pseudomonas aeruginosa [3] was 10 µg/mL (≈ 16.1 µM) each time. Moreover, the result with Staphylococcus aureus [5] was inactive.
As for `CCCC(=O)c1c(O)c(CC2=C(O)C(C)(C/C=C(\C)CCC=C(C)C)C(O)=C(C(C)=O)C2=O)c(O)c2c1OC(C)(C)C=C2` (stereo not given) [YUNGENSIN A], the inhibition of growth at 10 µg/mL in the test with Staphylococcus aureus [1] and with Pseudomonas aeruginosa [4] was 99% throughout. Moreover, the MBC against Staphylococcus aureus [2] and in the test with Pseudomonas aeruginosa [3] was 50 µg/mL (≈ 84.4 µM) in each case. For the same compound, the minimal inhibitory concentration (MIC) in the test on Staphylococcus aureus [2] and against Pseudomonas aeruginosa [3] was 10 µg/mL (≈ 16.9 µM) throughout. For the same compound, the result in the test on Staphylococcus aureus [5] was inactive.
For the compound `CCCC(=O)c1c(O)c2c(c(CC3=C(O)C(C)(C/C=C(\C)CCC=C(C)C)C(O)=C(C(C)=O)C3=O)c1O)OC(C)(C)C=C2` (stereo not given) [YUNGENSIN F], the values for the inhibition of growth at 10 µg/mL in the test with Staphylococcus aureus [1] and with Pseudomonas aeruginosa [4] were 93% and 86%, respectively. Besides, the results for the MBC in the test on Staphylococcus aureus [2] and in the test on Pseudomonas aeruginosa [3] were 100 µg/mL (≈ 169 µM) and 50 µg/mL (≈ 84.4 µM), respectively. The MIC against Staphylococcus aureus [2] and with Pseudomonas aeruginosa [3] was 50 µg/mL (≈ 84.4 µM) throughout. Moreover, the outcome with Staphylococcus aureus [5] was inactive.
Consider `CCCC(=O)c1c(O)c(CC=C(C)C)c(O)c(CC2=C(O)C(C)(C/C=C(\C)CCC=C(C)C)C(O)=C(C(C)=O)C2=O)c1O` (stereo not given) [YUNGENSIN D], for which the inhibition of growth at 10 µg/mL with Staphylococcus aureus [1] amounted to 83%; in the test with Pseudomonas aeruginosa [4], 86%. In addition, the MBC against Staphylococcus aureus [2] is greater than 200 µg/mL; in the test on Pseudomonas aeruginosa [3] it was 100 µg/mL (≈ 168 µM). Moreover, the MIC against Staphylococcus aureus [2] was 100 µg/mL (≈ 168 µM); against Pseudomonas aeruginosa [3] it was 50 µg/mL (≈ 84.1 µM).
Regarding `CCCC(=O)c1c(O)c(C/C=C(\C)CCC=C(C)C)c(O)c(CC2=C(O)C(C)(C/C=C(\C)CCC=C(C)C)C(O)=C(C(C)=O)C2=O)c1O` (stereo not given) [YUNGENSIN E], the inhibition of growth at 10 µg/mL in the test on Staphylococcus aureus [1] and in the test with Pseudomonas aeruginosa [4] was 87% in each case. In addition, the MBC against Staphylococcus aureus [2] and with Pseudomonas aeruginosa [3] was 200 µg/mL (≈ 302 µM) in each case. The MIC in the test with Staphylococcus aureus [2] and in the test with Pseudomonas aeruginosa [3] was 100 µg/mL (≈ 151 µM) throughout. The outcome with Staphylococcus aureus [5] was inactive.
